Measured values: US10562898B2, “Substituted benzenesulfonamides as inhibitors of alpha-4 beta-7 integrin activity” (EA PHARMA CO., LTD., priority 2016, dated 2020)

Molecular target: T1, α4β1 integrin (Homo sapiens, UniProt P05556+P13612)
T1 construct: a cell line Jurkat, which is known to express α4β1 integrin; endogenous in cells; host or cells: Jurkat (human T cell line)
Assay: VCAM-1/α4β1 integrin binding inhibitory activity evaluation test (Jurkat cells binding to VCAM-1/Fc)
Format: cell-based
Conditions: recombinant human VCAM-1/Fc
Method: (1) VCAM-1/α4β1 Integrin Binding Inhibitory Activity Evaluation Test
Each test substance was measured in terms of an ability to inhibit the VCAM-1 binding of a human T cell line, namely, a cell line Jurkat, which is known to express α4β1 integrin.
A solution of recombinant human VCAM-1/Fc (R&D Systems, Inc.) (1 μg/mL) diluted with a buffer A (carbonate buffer, pH 9.6) was placed in an amount of 50 μL/well in a 96-well microtiter plate, followed by incubation at 4° C. overnight. After the plate was washed with PBS once, 150 μL/well of Block Ace (Snow Brand Milk Products Co., Ltd.) was added, followed by incubation at room temperature for 2 hours. After removal, the plate was washed with PBS once.
Then, 100 μL of the Jurkat cells (2×10^6 cells/mL) and 100 μL of the test substance at each of various concentrations diluted with a binding buffer (DMEM containing 40 mM HEPES, 0.2% BSA, and 4 mM MnCl2) were added to the plate coated with the VCAM-1/Fc (5×10^5 cells/well), followed by incubation at 30° C. for 15 to 60 minutes. After the cells were bound to the wells, the plate was washed with PBS to remove unbound cells. A buffer C (PBS containing 1.5% Triton X-100) was added in an amount 50 μL/well to the plate to lyse the bound Jurkat cells. After 30 μL of a substrate buffer (Promega, CytoTox 96 Non-Radioactive Cytotoxicity Assay) was added to 30 μL of the cell lysate, a reaction was allowed to proceed at room temperature in the dark for 30 minutes. After 30 μL of a stop solution (Promega, CytoTox 96 Non-Radioactive Cytotoxicity Assay) was added to each, and then an absorbance at 490 nm was measured using a plate reader. The absorbance obtained here represents a detection result of an activity of lactate dehydrogenase (LDH) eluted in the supernatant of each well, that is, the absorbance is proportional to the number of Jurkat cells bound to the VCAM-1 and thus remaining on the plate. The test was performed in duplicate. Provided that the absorbance of a well containing no test substance was 100%, a cell binding rate with the test substance at each of the various concentrations was figured out, and a concentration IC50 which brought about 50% binding inhibition was calculated.

T1 sequence (P13612 34-1032): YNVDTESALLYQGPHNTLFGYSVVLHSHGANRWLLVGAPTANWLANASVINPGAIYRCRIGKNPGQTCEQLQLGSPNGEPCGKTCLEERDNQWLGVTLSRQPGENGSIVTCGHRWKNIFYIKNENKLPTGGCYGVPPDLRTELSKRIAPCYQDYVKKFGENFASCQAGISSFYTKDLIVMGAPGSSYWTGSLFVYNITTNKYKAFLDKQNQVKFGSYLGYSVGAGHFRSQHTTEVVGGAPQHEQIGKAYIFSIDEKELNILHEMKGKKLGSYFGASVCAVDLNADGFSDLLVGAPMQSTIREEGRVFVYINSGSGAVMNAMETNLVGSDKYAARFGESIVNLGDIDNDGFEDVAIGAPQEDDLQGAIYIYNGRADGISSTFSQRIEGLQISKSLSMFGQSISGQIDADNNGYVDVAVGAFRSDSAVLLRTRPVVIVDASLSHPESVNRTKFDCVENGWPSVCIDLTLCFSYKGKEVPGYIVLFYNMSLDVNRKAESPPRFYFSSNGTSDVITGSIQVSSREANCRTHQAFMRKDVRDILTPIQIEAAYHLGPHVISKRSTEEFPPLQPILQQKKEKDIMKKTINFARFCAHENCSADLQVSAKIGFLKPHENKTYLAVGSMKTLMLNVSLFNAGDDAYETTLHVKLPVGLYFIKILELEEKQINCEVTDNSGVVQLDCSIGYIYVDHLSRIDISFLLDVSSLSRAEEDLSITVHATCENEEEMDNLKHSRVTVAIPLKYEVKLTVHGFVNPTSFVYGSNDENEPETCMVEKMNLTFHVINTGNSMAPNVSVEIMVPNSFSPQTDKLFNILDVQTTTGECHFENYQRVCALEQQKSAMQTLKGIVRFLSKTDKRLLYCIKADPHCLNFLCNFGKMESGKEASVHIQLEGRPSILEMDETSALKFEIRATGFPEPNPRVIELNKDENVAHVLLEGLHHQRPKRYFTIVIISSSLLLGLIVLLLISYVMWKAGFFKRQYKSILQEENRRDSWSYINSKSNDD
T1 sequence (P05556 21-798): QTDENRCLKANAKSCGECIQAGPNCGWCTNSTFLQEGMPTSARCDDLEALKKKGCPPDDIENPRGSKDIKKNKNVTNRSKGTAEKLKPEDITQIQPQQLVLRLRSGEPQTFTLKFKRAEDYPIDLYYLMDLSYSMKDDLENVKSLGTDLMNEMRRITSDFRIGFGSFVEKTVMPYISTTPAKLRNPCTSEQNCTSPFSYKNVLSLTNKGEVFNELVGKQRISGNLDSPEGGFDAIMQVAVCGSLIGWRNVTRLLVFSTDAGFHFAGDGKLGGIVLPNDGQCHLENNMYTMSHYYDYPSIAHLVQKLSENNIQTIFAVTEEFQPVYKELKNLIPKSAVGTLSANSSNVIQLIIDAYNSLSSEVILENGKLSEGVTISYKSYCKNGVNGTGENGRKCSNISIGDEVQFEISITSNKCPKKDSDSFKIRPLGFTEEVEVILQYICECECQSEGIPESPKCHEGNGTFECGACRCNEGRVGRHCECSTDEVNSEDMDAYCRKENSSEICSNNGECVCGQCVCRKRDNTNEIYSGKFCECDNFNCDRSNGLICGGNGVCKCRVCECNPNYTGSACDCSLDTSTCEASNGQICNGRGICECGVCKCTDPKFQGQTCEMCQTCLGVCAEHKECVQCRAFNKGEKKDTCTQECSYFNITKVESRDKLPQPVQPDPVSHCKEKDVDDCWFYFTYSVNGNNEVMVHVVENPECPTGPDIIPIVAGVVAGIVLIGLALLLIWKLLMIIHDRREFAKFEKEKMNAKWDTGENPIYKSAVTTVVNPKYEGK

SMILES | IC50 [µM]
Cn1ccc(=O)n(-c2ccc(C[C@H](NC(=O)c3cc(F)c(NS(=O)(=O)c4ccc(NC(=O)C(C)(C)C)cc4)cc3F)C(=O)O)cn2)c1=O [Compound A53] | > 31.2
Cc1cn(C)c(=O)n(-c2ccc(C[C@H](NC(=O)c3cc(F)c(NS(=O)(=O)c4ccc(NC(=O)C(C)(C)C)cc4)cc3F)C(=O)O)cn2)c1=O [Compound A54] | 29
Cn1ccc(=O)n(-c2ccc(C[C@H](NC(=O)c3cc(F)c(NS(=O)(=O)c4ccc(NC(=O)C5(C(F)(F)F)CC5)cc4)cc3F)C(=O)O)cn2)c1=O [Compound A55] | > 31.2
Cc1cn(C)c(=O)n(-c2ccc(C[C@H](NC(=O)c3cc(F)c(NS(=O)(=O)c4ccc(NC(=O)C5(C(F)(F)F)CC5)cc4)cc3F)C(=O)O)cn2)c1=O [Compound A56] | 19
Cn1ccc(=O)n(-c2ccc(C[C@H](NC(=O)c3cc(F)c(NS(=O)(=O)c4ccc(NC(=O)C(C)(C)C(F)(F)F)cc4)cc3F)C(=O)O)cn2)c1=O [Compound A57] | 25
Cn1ccc(=O)n(-c2ccc(C[C@H](NC(=O)c3cc(F)c(NS(=O)(=O)c4ccc(NC(=O)C5(C#N)CC5)cc4)cc3F)C(=O)O)cn2)c1=O [Compound A59] | > 31.2
CCC(CC)C(=O)Nc1ccc(S(=O)(=O)Nc2cc(F)c(C(=O)N[C@@H](Cc3ccc(-n4c(=O)ccn(C)c4=O)nc3)C(=O)O)cc2F)cc1 [Compound A61] | > 31.2
Cn1ccc(=O)n(-c2ccc(C[C@H](NC(=O)c3cc(F)c(NS(=O)(=O)c4ccc(NC(=O)C(C)(C)CO)cc4)cc3F)C(=O)O)cn2)c1=O [Compound A62] | > 31.2
Cc1cn(C)c(=O)n(-c2ccc(C[C@H](NC(=O)c3cc(F)c(NS(=O)(=O)c4ccc(NC(=O)C(C)(C)CO)cc4)cc3F)C(=O)O)cn2)c1=O [Compound A63] | > 31.2
Cn1ccc(=O)n(-c2ccc(C[C@H](NC(=O)c3cc(F)c(NS(=O)(=O)c4ccc(NC(=O)C5CCCC5)cc4)cc3F)C(=O)O)cn2)c1=O [Compound A64] | > 31.2
Cc1cn(C)c(=O)n(-c2ccc(C[C@H](NC(=O)c3cc(F)c(NS(=O)(=O)c4ccc(NC(=O)C5CCCC5)cc4)cc3F)C(=O)O)cn2)c1=O [Compound A65] | 21
Cn1c(C(F)(F)F)cc(=O)n(-c2ccc(C[C@H](NC(=O)c3cc(F)c(NS(=O)(=O)c4ccc(NC(=O)C(C)(C)C)cc4)cc3F)C(=O)O)cn2)c1=O [Compound A66] | 19
Cn1cc(C(F)(F)F)c(=O)n(-c2ccc(C[C@H](NC(=O)c3cc(F)c(NS(=O)(=O)c4ccc(NC(=O)C(C)(C)C)cc4)cc3F)C(=O)O)cn2)c1=O [Compound A67] | 19
Cn1ccc(=O)n(-c2ccc(C[C@H](NC(=O)c3cc(F)c(NS(=O)(=O)c4ccc(NC(=O)C(C)(C)C)cc4)cc3F)C(=O)O)nc2)c1=O [Compound A70] | 38
Cc1cn(C)c(=O)n(-c2ccc(C[C@H](NC(=O)c3cc(F)c(NS(=O)(=O)c4ccc(NC(=O)C(C)(C)C)s4)cc3F)C(=O)O)cn2)c1=O [Compound A73] | 21
CN1CCC(=O)N(c2ccc(C[C@H](NC(=O)c3cc(F)c(NS(=O)(=O)c4ccc(NC(=O)C(C)(C)C)cc4)cc3F)C(=O)O)cn2)C1=O [Compound A75, (2S)-2-[2,5-difluoro-4-[(4-pivalamidophenyl)sulfonamide]benzamido]-3-[6-(3-methyl-2,6-dioxotetrahydropyrimidin-1(2H)-yl)pyridin-3-yl]propanoic acid] | 32
Cc1cn(C)c(=O)n(-c2ccc(C[C@H](NC(=O)c3cc(F)c(NS(=O)(=O)c4cc5cc(NC(=O)C(C)(C)C)ccc5[nH]4)cc3F)C(=O)O)cn2)c1=O [Compound A76] | 25

These reach a lower IC50. Values come first.

IC50 [µM] | SMILES
15 | Cc1cn(C)c(=O)n(-c2ccc(C[C@H](NC(=O)c3cc(F)c(NS(=O)(=O)c4ccc(NC(=O)C(C)C)cc4)cc3F)C(=O)O)cn2)c1=O [Compound A71]
14 | Cc1cn(C)c(=O)n(-c2ccc(C[C@H](NC(=O)c3cc(F)c(NS(=O)(=O)c4ccc(NC(=O)C(C)(C)C(F)(F)F)cc4)cc3F)C(=O)O)cn2)c1=O [Compound A58]
13 | Cc1cn(C)c(=O)n(-c2ccc(C[C@H](NC(=O)c3cc(F)c(NS(=O)(=O)c4ccc(NC(=O)C(C)(C)C)cc4)cc3F)C(=O)O)nc2)c1=O [Compound A69]
12 | Cc1cn(C)c(=O)n(-c2ccc(C[C@H](NC(=O)c3cc(F)c(NS(=O)(=O)c4ccc(NC(=O)C5(C#N)CC5)cc4)cc3F)C(=O)O)cn2)c1=O [Compound A60]
11 | Cc1c(C)n(C(C)C)c(=O)n(-c2ccc(C[C@H](NC(=O)c3cc(F)c(NS(=O)(=O)c4ccc(NC(=O)C(C)(C)C)cc4)cc3F)C(=O)O)cc2)c1=O [Compound A48]
10 | Cc1cc(=O)n(-c2ccc(C[C@H](NC(=O)c3cc(F)c(NS(=O)(=O)c4ccc(NC(=O)C(C)(C)C)cc4)cc3F)C(=O)O)cn2)c(=O)n1C [Compound A45]
9.3 | Cc1cc(=O)n(-c2ccc(C[C@H](NC(=O)c3cc(F)c(NS(=O)(=O)c4ccc(NC(=O)C(C)(C)C)cc4)cc3F)C(=O)O)nc2)c(=O)n1C [Compound A72]
7.4 | Cc1cn(C)c(=O)n(-c2ccc(C[C@H](NC(=O)c3cc(F)c(NS(=O)(=O)c4ccc5c(NC(=O)C(C)(C)C)c[nH]c5c4)cc3F)C(=O)O)cn2)c1=O [Compound A74]
7.1 | Cc1c(C)n(C)c(=O)n(-c2ccc(C[C@H](NC(=O)c3cc(F)c(NS(=O)(=O)c4cccc(NC(=O)C(C)(C)C)c4)cc3F)C(=O)O)cn2)c1=O [Compound A50]
7.1 | Cc1cn(C)c(=O)n(-c2ccc(C[C@H](NC(=O)c3cc(F)c(NS(=O)(=O)c4c[nH]c5cc(NC(=O)C(C)(C)C)ccc45)cc3F)C(=O)O)cn2)c1=O [Compound A77]
5.5 | Cc1c(CO)c(=O)n(-c2ccc(C[C@H](NC(=O)c3cc(F)c(NS(=O)(=O)c4ccc(NC(=O)C(C)(C)C)cc4)cc3F)C(=O)O)cc2)c(=O)n1C [Compound A51]
4.1 | Cn1c2c(c(=O)n(-c3ccc(C[C@H](NC(=O)c4cc(F)c(NS(=O)(=O)c5ccc(NC(=O)C(C)(C)C)cc5)cc4F)C(=O)O)nc3)c1=O)CCCC2 [Compound A47]
3.4 | Cn1c2c(c(=O)n(-c3ccc(C[C@H](NC(=O)c4cc(F)c(NS(=O)(=O)c5ccc(NC(=O)C(C)(C)C)cc5)cc4F)C(=O)O)cn3)c1=O)COCC2 [Compound A44]
2.3 | Cc1cn(C)c(=O)n(-c2ccc(C[C@H](NC(=O)c3cc(F)c(NS(=O)(=O)c4ccc(NC(=O)C#CC(C)(C)C)cc4)cc3F)C(=O)O)cn2)c1=O [Compound A68]
2.2 | Cn1c2c(c(=O)n(-c3ccc(C[C@H](NC(=O)c4cc(F)c(NS(=O)(=O)c5ccc(NC(=O)C(C)(C)C)cc5)cc4F)C(=O)O)cn3)c1=O)CCCC2 [Compound A52]
1.8 | Cc1cc(=O)n(-c2ccc(C[C@H](NC(=O)c3cc(F)c(NS(=O)(=O)c4ccc(NC(=O)C(C)(C)C)cc4)cc3F)C(=O)O)cc2)c(=O)n1C [Compound A46]
1.8 | Cc1c(C)n(C)c(=O)n(-c2ccc(C[C@H](NC(=O)c3cc(F)c(NS(=O)(=O)c4cccc(NC(=O)C(C)(C)C)c4)cc3F)C(=O)O)cc2)c1=O [Compound A49]
1.2 | Cn1cnc2c1c(=O)n(-c1ccc(C[C@H](NC(=O)c3cc(F)c(NS(=O)(=O)c4ccc(NC(=O)C(C)(C)C)cc4)cc3F)C(=O)O)cc1)c(=O)n2C [Compound A43]
